Our source for the EC50 values is US7192924B2, “Corticotropin releasing factor 2 receptor agonists” (priority 2002, dated 2007).

Where two headings read alike, the source gives them in different places. Peptide text beside a SMILES is read from it.

One experiment has as its target T1, CRF2R (Homo sapiens, UniProt Q13324).
T1 sequence (Q13324 1-411): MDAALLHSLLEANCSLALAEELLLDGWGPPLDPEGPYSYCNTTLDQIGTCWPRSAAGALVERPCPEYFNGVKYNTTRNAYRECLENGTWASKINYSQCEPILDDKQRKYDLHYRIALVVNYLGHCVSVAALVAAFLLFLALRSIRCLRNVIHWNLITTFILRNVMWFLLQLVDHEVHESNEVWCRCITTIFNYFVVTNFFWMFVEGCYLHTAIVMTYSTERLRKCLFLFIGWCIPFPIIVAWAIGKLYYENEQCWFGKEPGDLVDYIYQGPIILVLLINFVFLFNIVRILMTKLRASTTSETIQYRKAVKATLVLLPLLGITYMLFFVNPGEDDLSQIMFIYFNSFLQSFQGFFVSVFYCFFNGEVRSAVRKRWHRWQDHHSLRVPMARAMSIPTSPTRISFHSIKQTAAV
Briefly: CRF2R agonist activity (EC50, Emax), called comparative CRF binding. The format is cell-based. The method, boiled down:
(§1)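 Cells expressing only CRF1R or only CRF2R (or recombinant receptor) are contacted with peptide or vehicle control. Receptor activation is read as cAMP induction, measured in cell lysates or via a cAMP-responsive-element reporter gene such as luciferase.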

Another experiment concerns the target T2, CRF1R (Homo sapiens, UniProt P34998).
T2 sequence (P34998 24-415): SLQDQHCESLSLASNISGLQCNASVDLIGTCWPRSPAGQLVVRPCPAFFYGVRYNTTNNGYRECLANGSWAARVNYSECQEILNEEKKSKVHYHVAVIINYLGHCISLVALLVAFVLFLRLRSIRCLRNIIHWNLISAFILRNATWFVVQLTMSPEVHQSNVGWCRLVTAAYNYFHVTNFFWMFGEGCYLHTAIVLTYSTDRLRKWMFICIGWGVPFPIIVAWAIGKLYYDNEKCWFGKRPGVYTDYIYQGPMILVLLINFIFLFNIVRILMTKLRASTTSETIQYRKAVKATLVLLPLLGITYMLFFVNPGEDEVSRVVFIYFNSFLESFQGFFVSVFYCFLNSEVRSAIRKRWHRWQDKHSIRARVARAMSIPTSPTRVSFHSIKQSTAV
Briefly: CRF1R agonist activity (EC50, Emax), called comparative CRF binding. It counts as cell-based. The method in brief:
as §1

In general, EC50 refers to the concentration giving half of the maximal effect. As for `CC[C@H](C)[C@H](N)C(=O)N[C@H](C(=O)N[C@@H](CC(C)C)C(=O)N[C@@H](CO)C(=O)N[C@@H](CC(C)C)C(=O)N[C@@H](CC(=O)O)C(=O)N[C@H](C(=O)N1CCC[C@H]1C(=O)N[C@H](C(=O)NCC(=O)N[C@@H](CC(C)C)C(=O)N[C@@H](CC(C)C)C(=O)N[C@@H](CCC(N)=O)C(=O)N[C@H](C(=O)N[C@@H](CC(C)C)C(=O)N[C@@H](CC(C)C)C(=O)N[C@@H](CCC(=O)O)C(=O)N[C@@H](CCC(N)=O)C(=O)N[C@@H](C)C(=O)N[C@@H](CCCNC(=N)N)C(=O)N[C@@H](CCC(N)=O)C(=O)N[C@@H](CCC(=O)O)C(=O)N[C@@H](C)C(=O)N[C@@H](C)C(=O)N[C@@H](CCCNC(=N)N)C(=O)N[C@@H](CCC(=O)O)C(=O)N[C@@H](CCC(N)=O)C(=O)N[C@@H](C)C(=O)N[C@H](C(=O)N[C@H](C(=O)N[C@@H](CC(N)=O)C(=O)N[C@@H](C)C(=O)N[C@@H](CCCNC(=N)N)C(=O)N[C@H](C(=O)N[C@@H](CC(C)C)C(=O)N[C@@H](C)C(=O)N[C@@H](CCCNC(=N)N)C(=O)N[C@H](C(N)=O)C(C)C)[C@@H](C)CC)[C@@H](C)O)[C@@H](C)O)[C@@H](C)CC)[C@@H](C)CC)C(C)C)C(C)C` [compound 123] (H-IVLSLDVPIGLLQILLEQARQEAAREQATTNARILARV-NH2; N-terminus assumed), the results for the EC50 on CRF2R (read-out: CRF2R EC50) and at CRF1R (read-out: CRF1R EC50) were 0.00349 µM and more than 1 µM, respectively.
The corresponding values for `CC[C@H](C)[C@H](N)C(=O)N[C@H](C(=O)N[C@@H](CC(C)C)C(=O)N[C@@H](CO)C(=O)N[C@@H](CC(C)C)C(=O)N[C@@H](CC(=O)O)C(=O)N[C@H](C(=O)N1CCC[C@H]1C(=O)N[C@H](C(=O)NCC(=O)N[C@@H](CC(C)C)C(=O)N[C@@H](CC(C)C)C(=O)N[C@@H](CCC(N)=O)C(=O)N[C@H](C(=O)N[C@@H](CC(C)C)C(=O)N[C@@H](CC(C)C)C(=O)N[C@@H](CCC(=O)O)C(=O)N[C@@H](CCC(N)=O)C(=O)N[C@@H](CCC(=O)O)C(=O)N[C@@H](CCCCN)C(=O)N[C@@H](CCC(N)=O)C(=O)N[C@@H](CCC(=O)O)C(=O)N[C@@H](C)C(=O)N[C@@H](C)C(=O)N[C@@H](CCCNC(=N)N)C(=O)N[C@@H](CCC(=O)O)C(=O)N[C@@H](CCC(N)=O)C(=O)N[C@@H](C)C(=O)N[C@H](C(=O)N[C@H](C(=O)N[C@@H](CC(N)=O)C(=O)N[C@@H](C)C(=O)N[C@@H](CCCNC(=N)N)C(=O)N[C@H](C(=O)N[C@@H](CC(C)C)C(=O)N[C@@H](C)C(=O)N[C@@H](CCCNC(=N)N)C(=O)N[C@H](C(N)=O)C(C)C)[C@@H](C)CC)[C@@H](C)O)[C@@H](C)O)[C@@H](C)CC)[C@@H](C)CC)C(C)C)C(C)C` [compound 125] (H-IVLSLDVPIGLLQILLEQEKQEAAREQATTNARILARV-NH2; N-terminus assumed) are 0.00447 µM and more than 0.1 µM.
The corresponding values for `CC[C@H](C)[C@H](N)C(=O)N[C@H](C(=O)N[C@@H](CC(C)C)C(=O)N[C@@H](CO)C(=O)N[C@@H](CC(C)C)C(=O)N[C@@H](CC(=O)O)C(=O)N[C@H](C(=O)N1CCC[C@H]1C(=O)N[C@H](C(=O)NCC(=O)N[C@@H](CC(C)C)C(=O)N[C@@H](CC(C)C)C(=O)N[C@@H](CCC(N)=O)C(=O)N[C@H](C(=O)N[C@@H](CC(C)C)C(=O)N[C@@H](CC(C)C)C(=O)N[C@@H](CCC(=O)O)C(=O)N[C@@H](CCC(N)=O)C(=O)N[C@@H](CCCNC(=N)N)C(=O)N[C@@H](C)C(=O)N[C@@H](CCCNC(=N)N)C(=O)N[C@@H](C)C(=O)N[C@@H](C)C(=O)N[C@@H](CCCNC(=N)N)C(=O)N[C@@H](CCC(=O)O)C(=O)N[C@@H](CCC(N)=O)C(=O)N[C@@H](C)C(=O)N[C@H](C(=O)N[C@H](C(=O)N[C@@H](CC(N)=O)C(=O)N[C@@H](C)C(=O)N[C@@H](CCCNC(=N)N)C(=O)N[C@H](C(=O)N[C@@H](CC(C)C)C(=O)N[C@@H](C)C(=O)N[C@@H](CCCNC(=N)N)C(=O)N[C@H](C(N)=O)C(C)C)[C@@H](C)CC)[C@@H](C)O)[C@@H](C)O)[C@@H](C)CC)[C@@H](C)CC)C(C)C)C(C)C` [compound 137] (H-IVLSLDVPIGLLQILLEQRARAAREQATTNARILARV-NH2; N-terminus assumed) are 0.0369 µM and more than 0.1 µM.
In the case of `CC[C@H](C)[C@H](N)C(=O)N[C@H](C(=O)N[C@@H](CC(C)C)C(=O)N[C@@H](CO)C(=O)N[C@@H](CC(C)C)C(=O)N[C@@H](CC(=O)O)C(=O)N[C@H](C(=O)N1CCC[C@H]1C(=O)N[C@H](C(=O)NCC(=O)N[C@@H](CC(C)C)C(=O)N[C@@H](CC(C)C)C(=O)N[C@@H](CCC(N)=O)C(=O)N[C@H](C(=O)N[C@@H](CC(C)C)C(=O)N[C@H](C(=O)N[C@@H](CCC(=O)O)C(=O)N[C@H](C(=O)N[C@@H](CCC(=O)O)C(=O)N[C@@H](CCCCN)C(=O)N[C@@H](CCC(N)=O)C(=O)N[C@@H](CCC(=O)O)C(=O)N[C@@H](CCCCN)C(=O)N[C@@H](CCC(=O)O)C(=O)N[C@@H](CCCCN)C(=O)N[C@@H](CCC(N)=O)C(=O)N[C@@H](CCC(N)=O)C(=O)N[C@@H](C)C(=O)N[C@@H](C)C(=O)N[C@@H](CC(N)=O)C(=O)N[C@@H](CC(N)=O)C(=O)N[C@@H](CCCNC(=N)N)C(=O)N[C@@H](CC(C)C)C(=O)N[C@@H](CC(C)C)C(=O)N[C@@H](CC(C)C)C(=O)N[C@@H](CC(=O)O)C(=O)N[C@H](C(=O)N[C@H](C(N)=O)[C@@H](C)CC)[C@@H](C)O)[C@@H](C)CC)[C@@H](C)CC)[C@@H](C)CC)[C@@H](C)CC)C(C)C)C(C)C` [compound 154] (H-IVLSLDVPIGLLQILIEIEKQEKEKQQAANNRLLLDTI-NH2; N-terminus assumed), the figures for the EC50 at CRF2R and on CRF1R were 0.0103 µM and more than 0.1 µM, respectively.
`CC[C@H](C)[C@H](N)C(=O)N[C@H](C(=O)N[C@@H](CC(C)C)C(=O)N[C@@H](CO)C(=O)N[C@@H](CC(C)C)C(=O)N[C@@H](CC(=O)O)C(=O)N[C@H](C(=O)N1CCC[C@H]1C(=O)N[C@H](C(=O)NCC(=O)N[C@@H](CC(C)C)C(=O)N[C@@H](CC(C)C)C(=O)N[C@@H](CCC(N)=O)C(=O)N[C@H](C(=O)N[C@@H](CC(C)C)C(=O)N[C@@H](CC(C)C)C(=O)N[C@@H](CCC(=O)O)C(=O)N[C@@H](CCSC)C(=O)N[C@H](C(=O)N[C@@H](CCCCN)C(=O)N[C@@H](C)C(=O)N[C@@H](CC(=O)O)C(=O)N[C@@H](CCC(N)=O)C(=O)N[C@@H](CC(C)C)C(=O)N[C@@H](C)C(=O)N[C@@H](CCC(N)=O)C(=O)N[C@@H](CCC(N)=O)C(=O)N[C@@H](C)C(=O)N[C@@H](Cc1c[nH]cn1)C(=O)N[C@@H](CO)C(=O)N[C@@H](CC(N)=O)C(=O)N[C@@H](CCCNC(=N)N)C(=O)N[C@@H](CCCCN)C(=O)N[C@@H](CC(C)C)C(=O)N[C@@H](CC(C)C)C(=O)N[C@@H](CC(=O)O)C(=O)N[C@H](C(=O)N[C@@H](C)C(N)=O)[C@@H](C)CC)[C@@H](C)O)[C@@H](C)CC)[C@@H](C)CC)C(C)C)C(C)C` [compound 155] (H-IVLSLDVPIGLLQILLEMTKADQLAQQAHSNRKLLDIA-NH2; N-terminus assumed): the concentration for a half-maximal effect (EC50) at CRF2R (read-out: CRF2R EC50) was found to be 0.0206 µM; on CRF1R (read-out: CRF1R EC50), 0.0406 µM.
